One test addresses T1, Human Polymorphonuclear Leukocyte Elastase (Homo sapiens, UniProt P08246).
T1 construct: Crude extract of human polymorphonuclear leukocytes (PMN) containing elastase activity; from tissue; host or cells: human polymorphonuclear leukocytes (crude extract)
T1 sequence (P08246 30-267): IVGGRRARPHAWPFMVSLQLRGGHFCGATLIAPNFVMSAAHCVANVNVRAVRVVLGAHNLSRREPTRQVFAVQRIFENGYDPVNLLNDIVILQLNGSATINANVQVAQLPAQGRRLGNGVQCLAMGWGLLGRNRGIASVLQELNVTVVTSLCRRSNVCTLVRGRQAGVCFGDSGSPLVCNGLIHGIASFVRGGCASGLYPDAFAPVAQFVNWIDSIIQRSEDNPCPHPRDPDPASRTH
Kind of test: Enzyme assay for inhibition of human polymorphonuclear leukocyte elastase via hydrolysis of Boc-AAPAN or Boc-AAPVN. The test is classed as biochemical. To be noted: pH 7.5, second order rate constant for inactivation of the enzyme, expressed to the nearest thousand, read-out: Kobs/[I]. The essentials: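 Crude human PMN extract as enzyme source, with 0.2 mM Boc-AAPAN in 0.05M TES buffer pH 7.5. Inhibitors in DMSO were added to substrate before the extract, and rate was followed as ΔOD/min at 410 mµ. Values are kobs/I, the second-order inactivation rate constant (per mole per second).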
As to `CCC[C@@H](NC(=O)N1C(=O)C(CC)(CC)[C@@H]1Oc1ccc(C(=O)O[C@@H](C)C(=O)O)cc1)c1ccc(C)cc1` [Compound 11, 1-carboxy-ethyl [S-(R*,S*)]4-((3,3-diethyl-1-(((1-(4-methylphenyl)butyl)amino)carbonyl)-4-oxo-2-azetidinyl)oxy) benzoate], the kinact/KI was 1.13e+06 M⁻¹ s⁻¹.

Regarding `CCC[C@@H](NC(=O)N1C(=O)C(CC)(CC)[C@@H]1Oc1ccc(CC(=O)N(C)CCN(C)C)cc1)c1ccc(OC)cc1` [Compound 289], the kinact/KI worked out at 754000 M⁻¹ s⁻¹.

For `CCCC(NC(=O)N1C(=O)C(CC)(CC)C1Oc1ccc(C(=O)OCCN(C)C)cc1)c1ccc(C)cc1` (stereo not drawn) [Compound 1, 2-(dimethylamino)ethyl (S-(R*,S*))-4-((3,3-diethyl-1-(((1-(4-methyl-phenyl)butyl)amino)carbonyl)-4-oxo-2-azetidinyl)oxy)benzoate], the kinact/KI came out at 1.57e+06 M⁻¹ s⁻¹.

For the molecule `CCC[C@@H](NC(=O)N1C(=O)C(CC)(CC)[C@@H]1Oc1cc(C)c(C(=O)N(C)CCN(CC)CC)c(C)c1)c1ccc(C)cc1` [Compound 308], the kinact/KI worked out at 377000 M⁻¹ s⁻¹.

With `CCC[C@@H](NC(=O)N1C(=O)C(CC)(CC)[C@@H]1Oc1ccc(CC(=O)NC(C)C(=O)N(CCO)CCO)cc1)c1ccc(C)cc1` (stereo partly shown) [Compound 51], the kinact/KI was 939000 M⁻¹ s⁻¹.

`CCC[C@@H](NC(=O)N1C(=O)C(CC)(CC)[C@@H]1Oc1ccc(C(=O)N(C)CCN(C)C)cc1)c1ccc(CC)c(C(=O)N2CCOCC2)c1` [Compound 272]: the kinact/KI stood at 2.42e+06 M⁻¹ s⁻¹.

For the molecule `CCC[C@@H](NC(=O)N1C(=O)C(CC)(CC)[C@@H]1Oc1ccc(C(=O)N(C)CCN(C)Cc2ccco2)cc1)c1ccc(C)cc1` [Compound 163], the kinact/KI is 1.82e+06 M⁻¹ s⁻¹.

For `CCC[C@@H](NC(=O)N1C(=O)C(CC)(CC)[C@@H]1Oc1ccc(CC(=O)NC(C)C(=O)O)cc1)c1ccc(C)cc1` (stereo partly shown) [Compound 48], the kinact/KI was found to be 676000 M⁻¹ s⁻¹.

Turning to `CCC[C@@H](NC(=O)N1C(=O)C(CC)(CC)[C@@H]1Oc1ccc(C(=O)N(C)CCN(C)C)cc1)c1ccc2c(c1)OCO2` [Compound 260], the kinact/KI worked out at 3.32e+06 M⁻¹ s⁻¹.

As to `CCC[C@@H](NC(=O)N1C(=O)C(CC)(CC)[C@@H]1Oc1ccc(C(=O)N2CCNCC2)cc1)c1ccc(C)cc1` [Compound 247, [S-(R*,S*)]-2-[4-[[(4-Piperazin-1-yl)carbonyl]phenoxy] -((3,3-diethyl-N-[1-(4-methylphenyl)butyl]-4-oxo-1-azetidinecarboxamide], the kinact/KI came to 1.1e+06 M⁻¹ s⁻¹.

On to `CCC[C@@H](NC(=O)N1C(=O)C(CC)(CC)[C@@H]1Oc1ccc(C(=O)N(C)CCN(C)Cc2ccccc2)cc1)c1ccc(Cl)cc1` [Compound 302], for which the kinact/KI was 1.46e+06 M⁻¹ s⁻¹.

Take `CCC[C@@H](NC(=O)N1C(=O)C(CC)(CC)[C@@H]1Oc1ccc(C(=O)N(CCN2CCCCC2)Cc2cccnc2)cc1)c1ccc(C)cc1` [Compound 139]: the kinact/KI amounted to 1.19e+06 M⁻¹ s⁻¹.

For `CCC[C@@H](NC(=O)N1C(=O)C(CC)(CC)[C@@H]1Oc1ccc(C(=O)N(C)CCN(C)C2CCC3CC2C3(C)C)cc1)c1ccc(C)cc1` (stereo partly shown) [Compound 222], the kinact/KI amounted to 2.29e+06 M⁻¹ s⁻¹.

For `CCC[C@@H](NC(=O)N1C(=O)C(CC)(CC)[C@@H]1Oc1ccc(C(=O)N2CCNCC2)cc1)c1ccc2c(c1)OCO2` [Compound 265a, [S-(R*,S*)]-2-[4-[[(4-Piperazin-1-yl)carbonyl]phenoxy] -((3,3-diethyl-N-[1-(3,4-methylenedioxyphenyl)butyl]-4-oxo-1-azetidinecarboxamide], the kinact/KI is 3.25e+06 M⁻¹ s⁻¹.

As to `CCC[C@@H](NC(=O)N1C(=O)C(CC)(CC)[C@@H]1Oc1ccc(C(=O)OCCCN(C)C)cc1)c1ccc(C)cc1` [Compound 14, 3-Dimethylamino-1-propyl [S-(R*,S*)]-4-[[3,3-diethyl-1-[[[1-(4-methyl-phenyl)butyl]amino]carbonyl]-4-oxo-2-azetidinyl]oxy]benzoate], the kinact/KI was 2.86e+06 M⁻¹ s⁻¹.

On to `CCC[C@@H](NC(=O)N1C(=O)C(CC)(CC)[C@@H]1Oc1ccc(C(=O)OCCN2CCN(C)CC2)cc1)c1ccc(C)cc1` [Compound 26, 2-(4-methyl-1-piperazinyl)ethyl[S-(R*,S*)]-4-[[3,3-diethyl-1-[[[1-(4-methyl-phenyl)butyl]amino]carbonyl]-4-oxo-2-azetidinyl]oxy]benzoate], for which the kinact/KI was 4.68e+06 M⁻¹ s⁻¹.

Take `CCC[C@@H](NC(=O)N1C(=O)C(CC)(CC)[C@@H]1Oc1ccc(C(=O)Nc2ccc(F)cc2)cc1)c1ccc(C)cc1` [Compound 134]: the kinact/KI turned out to be 724000 M⁻¹ s⁻¹.

Consider `CCC[C@@H](NC(=O)N1C(=O)C(CC)(CC)[C@@H]1Oc1ccc(C(=O)N(CCC)CCC)cc1)c1ccc(C)cc1` [Compound 127], for which the kinact/KI was found to be 990000 M⁻¹ s⁻¹.

For `CCC[C@@H](NC(=O)N1C(=O)C(CC)(CC)[C@@H]1Oc1ccc(C(=O)N(CCN(C)Cc2ccccc2)Cc2ccncc2)cc1)c1ccc(C)cc1` [Compound 193], the kinact/KI worked out at 2.24e+06 M⁻¹ s⁻¹.

In the case of `CCC[C@@H](NC(=O)N1C(=O)C(CC)(CC)[C@@H]1Oc1ccc(C(=O)N(C)CCN2CCCCC2)cc1)c1ccc(C)cc1` [Compound 91], the kinact/KI was 892000 M⁻¹ s⁻¹.

Take `CCC[C@@H](NC(=O)N1C(=O)C(CC)(CC)[C@@H]1Oc1ccc(C(=O)Nc2cccc(N(C)C)c2)cc1)c1ccc(C)cc1` [Compound 111]: the kinact/KI worked out at 2.29e+06 M⁻¹ s⁻¹.

Turning to `CCC[C@@H](NC(=O)N1C(=O)C(CC)(CC)[C@@H]1Oc1ccc(C(=O)OCCN(C)C(C)=O)cc1)c1ccc(C)cc1` (relative stereo) [Compound 7, 2-(N-methylacetamido)ethyl. {2-(R*,S*)}-4-{{3,3-Diethyl-1-{{{1-(4-methyl-phenyl)butyl}amino}carbonyl}-4-oxo-2-azetidinyl}oxy}-benzoate], the kinact/KI is 1.56e+06 M⁻¹ s⁻¹.

In the case of `CCC[C@@H](NC(=O)N1C(=O)C(CC)(CC)[C@@H]1Oc1ccc(C(=O)N(C)CCN2CCC(O)C2)cc1)c1ccc(C)cc1` (stereo partly shown) [Compound 138], the kinact/KI worked out at 960000 M⁻¹ s⁻¹.

With `CCC[C@@H](NC(=O)N1C(=O)C(CC)(CC)[C@@H]1Oc1ccc(C(=O)N(C)CCCCCCN(C)Cc2ccccc2)cc1)c1ccc(C)cc1` [Compound 168], the kinact/KI is 2.16e+06 M⁻¹ s⁻¹.

Consider `CCC[C@@H](NC(=O)N1C(=O)C(CC)(CC)[C@@H]1Oc1ccc(C(=O)N(C)CCN2CCN(C(=O)OC(C)(C)C)CC2)cc1)c1ccc(C)cc1` [Compound 142], for which the kinact/KI came out at 3.47e+06 M⁻¹ s⁻¹.

Turning to `CCC[C@@H](NC(=O)N1C(=O)C(CC)(CC)[C@@H]1Oc1ccc(C(=O)N(C)CCN(C)CC2CCCCO2)cc1)c1ccc(C)cc1` (stereo partly shown) [Compound 173], the kinact/KI worked out at 2.94e+06 M⁻¹ s⁻¹.

As for `CCC[C@@H](NC(=O)N1C(=O)C(CC)(CC)[C@@H]1Oc1ccc(CC(=O)N(CC)CC)cc1)c1ccc(C)cc1` [Compound 60], the kinact/KI was 1.08e+06 M⁻¹ s⁻¹.

In the case of `CCC[C@@H](NC(=O)N1C(=O)C(CC)(CC)[C@@H]1Oc1ccc(CC(=O)N2CCOCC2)cc1)c1ccc(C)c(COC(=O)N(CC)CC)c1` [Compound 292], the kinact/KI came out at 807000 M⁻¹ s⁻¹.

Turning to `CCC[C@@H](NC(=O)N1C(=O)C(CC)(CC)[C@@H]1Oc1ccc(C(=O)N(C)CCN2CCC(=O)CC2)cc1)c1ccc(C)cc1` [Compound 130], the kinact/KI was determined as 2.3e+06 M⁻¹ s⁻¹.

As to `CCC[C@@H](NC(=O)N1C(=O)C(CC)(CC)[C@@H]1Oc1ccc(C(=O)N(CC)CCN(C)C)cc1)c1ccc(C)cc1` [Compound 76], the kinact/KI came out at 1.44e+06 M⁻¹ s⁻¹.

The test is the same for the next values; noted with them: second order rate constant for inactivation of the enzyme, expressed to the nearest thousand; pH 7.5.
On to “[S-(R*,S*)]-2-[4-[[(4-Methyl)piperazin-1-yl]carbonyl] phenoxy]-((3,3-diethyl-N-[1-(methylphenyl)butyl]-4-oxo-1-azetidinecarboxamide [Compound 242]”, for which the “Kobs/[I]” value was 1,700,000 per mole per second.

(Values after patent EP0595557A1, “New substituted azetidinones as anti-inflammatory and antidegenerative agents” (MERCK & CO. INC., priority 1992, dated 1994).)
